# System: A431 cells
# Experiment: Protein synthesis ([3H]leucine incorporation) assay: inhibition of DAB389 EGF cytotoxicity by chloroquine
# Settings: for % of control Protein Synthesis, + Chloroquine: relative to chloroquine treatment alone
smiles,measurement,setting,value
"CCN(CC)CCCC(C)Nc1ccnc2cc(Cl)ccc12 (stereo not shown) [Chloroquine, chloroquine]","% of control Protein Synthesis, + Chloroquine","A431 cells, chloroquine 10 μM with DAB389 EGF 1 pm, 20 hr",100%
same,"% of control Protein Synthesis, + Chloroquine","A431 cells, chloroquine 10 μM with DAB389 EGF 10 pm, 20 hr",61%
same,blocking of the cytotoxicity of DAB389 EGF,"A431 cells, chloroquine 10 μM, 20 hr",completely blocked
same,inhibition at 10 µM,"Homo sapiens, A-431, 20 h, read-out: reduction of protein synthesis by chloroquine treatment alone",27%

# — US5906820A, “Epidermal growth factor receptor targeted molecules for treatment of inflammatory arthritis” (priority 1997, dated 1999)
